Measured values from the supplement of paper PMC11551840.

Legend:
Assay in all cases: IC50 (cell viability, 72 h) (ln(µM))
ORL-195 = test system: ORL-195
Procedure: (§1)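 Discovery screen of OSCC cell lines in 1,536-well plates. Cells were treated 24 h after seeding with 7 concentrations spanning a 1,000-fold half-log range for 72 h, and viability was read by CellTiter-Glo 2.0 and normalised to DMSO (1) and medium-only (0) controls. IC50 comes from a two-parameter logistic nonlinear mixed-effects fit and is reported as natural log of IC50 in µM.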

ORL-174 = test system: ORL-174
Procedure: as §1

HSC-4 = test system: HSC-4
Procedure: as §1

ORL-150 = test system: ORL-150
Procedure: as §1

HSC-2 = test system: HSC-2
Procedure: as §1

HO-1-u-1 = test system: HO-1-u-1
Procedure: as §1

ORL-48 = test system: ORL-48
Procedure: as §1

PE-CA-PJ15 = test system: PE-CA-PJ15
Procedure: as §1

SAS = test system: SAS
Procedure: as §1

ORL-207 = test system: ORL-207
Procedure: as §1

ORL-166 = test system: ORL-166
Procedure: as §1

ORL-115 = test system: ORL-115
Procedure: as §1

SCC-9 = test system: SCC-9
Procedure: as §1

ORL-136 = test system: ORL-136
Procedure: as §1

BICR10 = test system: BICR10
Procedure: as §1

ORL-214 = test system: ORL-214
Procedure: as §1

ORL-215 = test system: ORL-215
Procedure: as §1

ORL-156 = test system: ORL-156
Procedure: as §1

ORL-188 = test system: ORL-188
Procedure: as §1

ORL-204 = test system: ORL-204
Procedure: as §1

ORL-153 = test system: ORL-153
Procedure: as §1

Row | Structure (SMILES) | IC50 (ln) (ORL-195) | IC50 (ln) (ORL-174) | IC50 (ln) (HSC-4) | IC50 (ln) (ORL-150) | IC50 (ln) (HSC-2) | IC50 (ln) (HO-1-u-1) | IC50 (ln) (ORL-48) | IC50 (ln) (PE-CA-PJ15) | IC50 (ln) (SAS) | IC50 (ln) (ORL-207) | IC50 (ln) (ORL-166) | IC50 (ln) (ORL-115) | IC50 (ln) (SCC-9) | IC50 (ln) (ORL-136) | IC50 (ln) (BICR10) | IC50 (ln) (ORL-214) | IC50 (ln) (ORL-215) | IC50 (ln) (ORL-156) | IC50 (ln) (ORL-188) | IC50 (ln) (ORL-204) | IC50 (ln) (ORL-153)
1 | CCNC(=O)c1noc(-c2cc(C(C)C)c(O)cc2O)c1-c1ccc(CN2CCOCC2)cc1 [Luminespib] | -4.03 | -4.47 | -2.55 | -3.97 | -4.34 | -4.16 | -4.29 | -2.87 | -3.87 | -4.84 | -2.05 | -1.26 | -2.72 | -3.13 | -3.95 | -4.45 | -3.76 | -3.29 | -4.38 | -2.64 | -3.79
2 | CC(C)C[C@@H](C=O)NC(=O)[C@H](CC(C)C)NC(=O)[C@H](CC(C)C)NC(=O)OCc1ccccc1 [MG-132] | -1.32 | -1.61 | -0.832 | -0.689 | -1.34 | -1.98 | -1.04 | -0.875 | -1.28 | -1.48 | -1.11 | -0.897 | -0.805 | -1.24 | -0.312 | -1.68 | -1.39 | -0.951 | -1.21 | -1.04 | -1.31
3 | CC(=O)O[C@H]1C(=O)[C@@]2(C)[C@H]([C@H](OC(=O)c3ccccc3)[C@]3(O)C[C@H](OC(=O)[C@H](O)[C@@H](NC(=O)c4ccccc4)c4ccccc4)C(C)=C1C3(C)C)[C@]1(OC(C)=O)CO[C@@H]1C[C@@H]2O [Paclitaxel] | -4.66 | -5.25 | -2.73 | -6.11 | -5.85 | -3.72 | -5.51 | -2.85 | -3.47 | -5.88 | -5.21 | -4.44 | -3.62 | -2.48 | -4.85 | -5.78 | -5.5 | -4.99 | -6.34 | -4.96 | -4.87
4 | Cc1[nH]c2ccccc2c1CCNCc1ccc(/C=C/C(=O)NO)cc1 [Panobinostat] | -1.26 | -2.11 | -0.0634 | -1.77 | -1.23 | -1.92 | -2.37 | -0.846 | -1.8 | -2.37 | -2.65 | 0.481 | 0.43 | -0.667 | -0.934 | -1.97 | -1.39 | -2.16 | -2 | -1.01 | -2.26
5 | CO[C@H]1C[C@@H]2CC[C@@H](C)[C@@](O)(O2)C(=O)C(=O)N2CCCC[C@H]2C(=O)O[C@H]([C@H](C)C[C@@H]2CC[C@@H](O)[C@H](OC)C2)CC(=O)[C@H](C)/C=C(\C)[C@@H](O)[C@@H](OC)C(=O)[C@H](C)C[C@H](C)/C=C/C=C/C=C/1C [Rapamycin] | -2.97 | -3.89 | -1.49 | -1.89 | -2.87 | -2.71 | -2.12 | -0.663 | -0.895 | -3.35 | -2.82 | -0.458 | -0.629 | -2.47 | -2.25 | -4.26 | -0.198 | -3.47 | -2.93 | -1.41 | -2.68
6 | C/C=C1\NC(=O)[C@H]2CSSCC/C=C/[C@H](CC(=O)N[C@H](C(C)C)C(=O)N2)OC(=O)[C@H](C(C)C)NC1=O [Romidepsin] | -3.85 | -5.44 | -2.03 | -5.04 | -4.88 | -5.24 | -5.62 | -3.12 | -4.87 | -4.74 | -5.72 | -3.74 | -3.68 | -4.02 | -4.05 | -3.64 | -4.27 | -4.55 | -5.03 | -4.13 | -5.8
7 | CCc1c2c(nc3ccc(O)cc13)-c1cc3c(c(=O)n1C2)COC(=O)[C@]3(O)CC [SN-38] | -2.3 | -3.86 | -4.28 | -3.32 | -5.53 | -1.5 | -2.86 | -2.9 | -5.93 | -5.13 | -3.75 | -1.9 | -0.268 | -0.854 | -1.02 | -5.1 | -3.53 | -2.97 | -4.81 | -5 | -4.49
8 | COCC[n+]1c2c(n(Cc3cnccn3)c1C)C(=O)c1ccccc1C2=O [Sepantronium bromide] | -2.96 | -4.12 | -4.35 | -4.45 | -5.94 | -3.53 | -6.01 | -4.17 | -6.78 | -5.9 | -2.05 | -1.33 | -6.15 | -6.45 | -2.2 | -5.54 | -3.91 | -6.01 | -4.09 | -3.1 | -5.11
